These results are taken from the OligoGym collection.

“And” between values parts separate entries of the source, which are not always exact repeats. Identical values can stand only once. After the bases stand the sugars from the 5' end (letter, count) and the backbone: PS all phosphorothioate, else s phosphorothioate and o phosphodiester by linkage. Methylation of C is not given here. e = 2'-O-(2-methoxyethyl) (MOE); k = constrained ethyl (cEt); d = 2'-deoxy (DNA)

The target in the first data set is IRF4. The settings on record: ASO, MM.1R, 0.0625 µM.
With ACGAGGTTGCCGAGAT (sugars k3 d10 k3, PS), the target mRNA inhibition is -16%.

Staying with this data set, now noted: ASO, MM.1R, 0.25 µM.
Turning to ACGAGGTTGCCGAGAT (sugars k3 d10 k3, PS), the target mRNA inhibition worked out at 7%.

The data set is the same for the next values; noted with them: ASO, MM.1R, 1 µM.
Take “ACCTCAGTTTGTGAAG (sugars kkdddddddddkekek, PS)”: the target mRNA inhibition is 13%.

On to “ACCTCAGTTTGTGAAG (sugars kkkdddddddddkeke, PS)”, for which the target mRNA inhibition is 8%. As to “ACCTCAGTTTGTGAAG (sugars kkkddddddddkekek, PS)”, the target mRNA inhibition was -3%. The same measure, in the same setting: in the case of ACGAGGTTGCCGAGAT (sugars k3 d10 k3, PS) it was 62% and 41%; in that of “ACGGAAGTTTACACTG (sugars k2 d9 e3 k2, PS)”, 15%. On the same count and under the same terms, in the case of “ACGGAAGTTTACACTG (sugars k3 d9 k3 e1, PS)” it was 29%. Still for that read-out and setting: in the case of “ACGGAAGTTTACACTG (sugars kdddddddddkekeke, PS)” it was 2%; in that of “ACGGAAGTTTACACTG (sugars kkkddddddddkekek, PS)”, 14%. For “ACGTGTGCTTGCCAAG (sugars k2 d9 e3 k2, PS)”, the target mRNA inhibition was 44% and 43%. The same measure, in the same setting: as for ACGTGTGCTTGCCAAG (sugars k3 d10 k3, PS), the figure is 54% and 55%. Same read-out and setting: in the case of “ACGTGTGCTTGCCAAG (sugars kddddddddddkekek, PS)” it was 47% and 37%; in that of “ACGTGTGCTTGCCAAG (sugars kkdddddddddekeke, PS)”, 59% and 61%; in that of ACTACCTGCAGCCAAG (sugars k3 d10 k3, PS), 4%. Same read-out and setting: as for “ACTGCTTGAGGTTTTC (sugars kdddddddddkekeke, PS)”, the figure is 21%. As for “ACTGCTTGAGGTTTTC (sugars kkddddddddddkeke, PS)”, the target mRNA inhibition turned out to be 21%.

On to “ACTGCTTGAGGTTTTC (sugars kkdddddddddkekek, PS)”, for which the target mRNA inhibition worked out at 24%. On to “ACTGCTTGAGGTTTTC (sugars kkkdddddddddkeke, PS)”, for which the target mRNA inhibition stood at 38%. On the same count and under the same terms, as for ACTGTATGGAACCCCA (sugars k3 d10 k3, PS), the figure is 30%; as for ACTTATAGCACTCTCC (sugars k3 d10 k3, PS), 1%. Still for that read-out and setting: as for ACTTGTGACCCACATA (sugars k3 d10 k3, PS), the figure is -4%; as for “ACTTTTAGAGAGGAGA (sugars kkdddddddddkdkdk, PS)”, 34%; as for “ACTTTTAGAGAGGAGA (sugars kkkddddddddkekek, PS)”, 21%. As to AGACAGTGCGCCCCAA (sugars k3 d10 k3, PS), the target mRNA inhibition was -17%. The same measure, in the same setting: as for AGAGTGAGATGCGGAG (sugars k3 d10 k3, PS), the figure is 65% and 63%. Still for that read-out and setting: in the case of AGATCTGTGGTAATCT (sugars k3 d10 k3, PS) it was -3%. Take AGATGCGGAGGTTCCT (sugars k3 d10 k3, PS): the target mRNA inhibition was 32%. Still for that read-out and setting: in the case of AGCAAGAGCTTACTGT (sugars k3 d10 k3, PS) it was -6%. The same measure, in the same setting: as for “AGCATTTTATCATCCG (sugars kkkdddddddddkeke, PS)”, the figure is 42%; as for AGCCGAGGCCTCCTTT (sugars k3 d10 k3, PS), -28%. The same measure, in the same setting: as for AGCTATGCTCTAGGAA (sugars k3 d10 k3, PS), the figure is 11%; as for AGCTGCCACTGGTAAC (sugars k3 d10 k3, PS), 0%. Consider “AGCTTGATAAAGGCTG (sugars kddddddddddkekek, PS)”, for which the target mRNA inhibition worked out at 1%. Still for that read-out and setting: in the case of “AGCTTGATAAAGGCTG (sugars kkdddddddddekeke, PS)” it was 18%.

With “AGGCACATCAATGTTT (sugars k2 d9 e3 k2, PS)”, the target mRNA inhibition is 36% and 43%.

In the case of “AGGCACATCAATGTTT (sugars kddddddddddkekek, PS)”, the target mRNA inhibition turned out to be 5%. On the same count and under the same terms, in the case of “AGGCACATCAATGTTT (sugars kkddddddddddkeke, PS)” it was 16% and 14%.

The data set is the same for the next values; noted with them: ASO, MM.1R, 4 µM.
Consider ACGAGGTTGCCGAGAT (sugars k3 d10 k3, PS), for which the target mRNA inhibition amounted to 78%.

Staying with this data set, now noted: ASO, SK-MEL-28, 0.185 µM.
Turning to ACTATAATTGGCACGA (sugars k3 d10 k3, PS), the target mRNA inhibition came to 6%.

Still in this data set, the particulars now being: ASO, SK-MEL-28, 4 µM.
Take ACCTGAATAGGAAGAT (sugars k3 d10 k3, PS): the target mRNA inhibition is 31%. On to ACCTTATGCTTGGCTC (sugars k4 d8 k4, PS), for which the target mRNA inhibition was 30%. Still for that read-out and setting: as for ACCTTTACTTCATTCC (sugars k3 d10 k3, PS), the figure is 64%; as for ACGAAAACAGCCGCCG (sugars k3 d10 k3, PS), 14%; as for ACGAAACACAGTCTGC (sugars k3 d10 k3, PS), 52%. The same measure, in the same setting: in the case of ACGAAGATTCAAAAGG (sugars k3 d10 k3, PS) it was 36%. On the same count and under the same terms, as for ACGAGAACGCACGGAC (sugars k3 d10 k3, PS), the figure is 40%. As for ACGCAATCTTCTGCTG (sugars k3 d10 k3, PS), the target mRNA inhibition was found to be 52%.

For ACGCAGTGCACCTGTG (sugars k3 d10 k3, PS), the target mRNA inhibition is -7%. Still for that read-out and setting: as for ACGCGCGGAGGACCTC (sugars k3 d10 k3, PS), the figure is 13%. The same measure, in the same setting: in the case of ACGCTTGCAGCTCTGA (sugars k3 d10 k3, PS) it was 48%. Still for that read-out and setting: as for ACTATAATTGGCACGA (sugars k3 d10 k3, PS), the figure is 69%; as for ACTATGGTAGGAGTGT (sugars k3 d10 k3, PS), 25%. ACTATTAAGAACTTGC (sugars k3 d10 k3, PS): the target mRNA inhibition was 21%. Same read-out and setting: in the case of ACTCAATGTGCACCTT (sugars k3 d10 k3, PS) it was 29%; in that of ACTGAACCATGTTCCT (sugars k3 d10 k3, PS), 51%; in that of ACTGACTAACAGGGAG (sugars k3 d10 k3, PS), 49%.

Take ACTGCTGTGTGTCAAA (sugars k3 d10 k3, PS): the target mRNA inhibition is -6%.

For ACTGCTTGAGGTTTTC (sugars k3 d10 k3, PS), the target mRNA inhibition stood at 58%.

As for ACTGGATCTGAATTGT (sugars k3 d10 k3, PS), the target mRNA inhibition came to 57%.

For the sequence ACTGGCATTGAGACGG (sugars k3 d10 k3, PS), the target mRNA inhibition is 72% and 79%. Still for that read-out and setting: in the case of ACTGGGTACATGGCAG (sugars k3 d10 k3, PS) it was 59%; in that of ACTGTTAAAGCAGCAT (sugars k3 d10 k3, PS), 71%; in that of ACTGTTTTAAGAGGCG (sugars k3 d10 k3, PS), 68% and 70%. Take ACTTAAAATCCACACC (sugars k3 d10 k3, PS): the target mRNA inhibition worked out at 7%.

For the sequence AGAAAACCCCCCTCTC (sugars k3 d10 k3, PS), the target mRNA inhibition was found to be 23%. Still for that read-out and setting: as for AGAAACGAGTTGACAC (sugars k3 d10 k3, PS), the figure is 15%; as for AGAAAGAGCTGGTAGG (sugars k3 d10 k3, PS), 36%; as for AGAACGAGGTAAATCT (sugars k3 d10 k3, PS), 40%. Same read-out and setting: as for AGAAGTACGAGCACAT (sugars k3 d10 k3, PS), the figure is 44%; as for AGACAGACTTCCAAGA (sugars k3 d10 k3, PS), 36%; as for AGACAGAGAGTCCGAC (sugars k3 d10 k3, PS), 7%.

Turning to AGACGAAAACAGCCGC (sugars k3 d10 k3, PS), the target mRNA inhibition turned out to be 25%. Still for that read-out and setting: in the case of AGATAACGAGGTGCCT (sugars k3 d10 k3, PS) it was 23%. Still for that read-out and setting: in the case of AGATAAGAAGCACTGG (sugars k3 d10 k3, PS) it was 25%; in that of AGATGTATACATCACT (sugars k3 d10 k3, PS), 76% and 71%; in that of AGCAAAGAGGGTCACA (sugars k3 d10 k3, PS), 68%. On the same count and under the same terms, as for AGCAACACGGGAATTT (sugars k3 d10 k3, PS), the figure is 57%; as for AGCAATTGAAATGGAG (sugars k3 d10 k3, PS), 22%; as for AGCACATGTCAACAGT (sugars k3 d10 k3, PS), 31%.

Regarding AGCATCTAAGGCAAGC (sugars k3 d10 k3, PS), the target mRNA inhibition was 57%.

Consider AGCCACTGGCGGAGCT (sugars k3 d10 k3, PS), for which the target mRNA inhibition stood at 38%. The same measure, in the same setting: as for AGCCAGAGCAGTAAAC (sugars k3 d10 k3, PS), the figure is 15%; as for AGCCATCGGCAGCTGA (sugars k3 d10 k3, PS), 14%; as for AGCCCAAAGTTACATC (sugars k3 d10 k3, PS), 42%. Same read-out and setting: in the case of AGCCCTTACCTCGCCC (sugars k3 d10 k3, PS) it was 25%; in that of AGCCGAAGCATTTTAT (sugars k3 d10 k3, PS), 44%; in that of AGCCGCCACATCAGCA (sugars k3 d10 k3, PS), 21%. In the case of AGCTAACTTACAGGAC (sugars k3 d10 k3, PS), the target mRNA inhibition was -4%. AGCTAGAACATGATGA (sugars k3 d10 k3, PS): the target mRNA inhibition was 5%.

Consider AGCTGAGCTGATCATC (sugars k3 d10 k3, PS), for which the target mRNA inhibition stood at 56%. Regarding AGCTTAGTTATCTGGG (sugars k3 d10 k3, PS), the target mRNA inhibition was 54% and 59%. In the case of AGCTTGATAAAGGCTG (sugars k3 d10 k3, PS), the target mRNA inhibition was 36%. With AGGAACAAGTGTATCT (sugars k3 d10 k3, PS), the target mRNA inhibition was found to be 46%. Still for that read-out and setting: as for AGGAAGCACTGGCATC (sugars k3 d10 k3, PS), the figure is 57%.

Take AGGAGATATTAATTAC (sugars k3 d10 k3, PS): the target mRNA inhibition was found to be 57%. For AGGCACATCAATGTTT (sugars k3 d10 k3, PS), the target mRNA inhibition stood at 51%.

The data set is the same for the next values; noted with them: ASO, SK-MEL-28, 5 µM.
On to ACTATAATTGGCACGA (sugars k3 d10 k3, PS), for which the target mRNA inhibition is 72%.

The same data set, now with this note: ASO, SK-MEL-28, 15 µM.
As to ACTATAATTGGCACGA (sugars k3 d10 k3, PS), the target mRNA inhibition was determined as 90%.
